In PMC8003343 (Pharmaceuticals, 2021):

Legend:
[1] = set-up: method as in PMID 1441590; conditions: human microsomes from a single donor; cited from earlier work
[2] = Enone metabolite formation in human liver microsomes; type: in vitro ADME; conditions: 6 at 4 µM, 1.0 mg/mL HLM, 150 min
Description: (§1) In preliminary experiments, the potential enone precursors 5–8 (8 µM) were incubated with either RLM (0.4 mg/mL) or HLM (0.8 mg/mL) for up to 4 h according to the protocol given in Section 4.3.1. Multiple samples were taken during incubation and analyzed with regard to the presence of the enone metabolite 4 in the incubation mixture.
(§2) The time course of the formation of 4 from precursor 6 was monitored by incubation of 6 (4 µM) with either 1.0 mg/mL HLM for 150 min or 0.4 mg/mL RLM for 100 min according to the procedures described in Section 4.3.1. but with a prolonged centrifugation cycle (15 min) for protein precipitation. Chromatographic separation was performed on a Kromasil C18 column (see Section 4.3.1) equipped with a 3 mm NH2 guard column (OPTI-GUARD, Optimize Technologies Inc., Oregon City, OR, USA) using an eluent composed of MeCN/H2O/AcOH 45:55:0.1 (v/v/v). All other chromatographic parameters resembled those given above. Incubations were conducted in triplicate.

[3] = Enone metabolite formation in rat liver microsomes; type: in vitro ADME; conditions: 6 at 4 µM, 0.4 mg/mL RLM, 100 min
Description: as §1, §2

[4] = In vitro intrinsic clearance in human liver microsomes (HLM); type: in vitro ADME
Description: (§3) Liver microsomes from Sprague Dawley rats (RLM), CD-1 mice (MLM), beagle dogs (DLM), Göttinger mini pigs (MPLM), rhesus monkeys (RMLM), and humans (HLM, specified total P450 content: 0.286 nmol/mg protein) were obtained from Thermo Fisher Scientific/Life Technologies (Darmstadt, Germany). Optimization of incubation conditions (microsomal protein concentration, substrate solvent, incubation buffer) has been carried out in a previous study. For assessment of intrinsic clearance (CLint), substrate (8 µM CBX, MCBX or CPFPX, stock solutions in DMSO) and microsomes (0.4 mg/mL RLM, MLM, DLM and MPLM, 2.0 mg/mL HLM and 0.04 mg/mL RMLM) were preincubated for 5 min at 37 °C in HEPES buffer (100 mM, pH 7.4) containing MgCl2 (3.3 mM). Enzymatic reactions were initiated by addition of preheated NADPH (1.3 mM) and were allowed to proceed for 30 min. Aliquots (100 µL) were sampled from the incubation mixture (500 µL total volume) at 0 and 30 min. An equal volume of a mixture of MeOH/MeCN (50:50, v/v, cooled to −20 °C) was added to terminate the reaction. After subsequent homogenization on a vortex mixer (1 min, 21 °C) and centrifugation (10 min, 20,000× g rcf, 21 °C), the supernatants (50 µL aliquots) were analyzed via HPLC-UV/VIS (Knauer smartline system equipped with a Rheodyne type 7125 sample injector and a 500 µL sample loop). Chromatographic conditions were as follows. Column: 4.6 mm × 250 mm Kromasil 100-5-C18 (AkzoNobel, Bohus, Sweden); eluent composition: MeCN/H2O/AcOH 48:52:0.2 (v/v/v); flow rate: 1 mL/min; detection wavelength: 275 nm. Microsomal assays were performed in quadruplicate.
(§4) Elimination rate constants (k) of CBX, MCBX, and CPFPX were derived via linear regression analysis of semi-logarithmic peak area vs. time plots.
(§5) In vitro half-life (t1/2) was calculated as:(1) t1/2=ln2/k
(§6) In vitro intrinsic clearance was calculated as follows:(2) Clint=ln2/t1/2[…] where c is the microsomal protein concentration. Since the main focus of the study was to compare CLint between species, but not between compounds, no correction for the microsomal unbound fraction was applied.

[5] = In vitro intrinsic clearance in rat liver microsomes (RLM); type: in vitro ADME, Sprague Dawley rats; conditions: microsomes from rat, mouse, mini pig, and rhesus
Description: as §3, §4, §5, §6

[6] = In vitro intrinsic clearance in dog liver microsomes (DLM); type: in vitro ADME, beagle dogs
Description: as §3, §4, §5, §6

[7] = In vitro intrinsic clearance in rhesus monkey liver microsomes (RMLM); type: in vitro ADME, rhesus monkeys; conditions: rhesus vs human liver microsomes; highest ratio among the three compounds
Description: as §3, with “Aliquots (100 µL) were sampled from the incubation mixture (500 µL total volume) at 0 and 30 min. An equal volume of a mixture of MeOH/MeCN (50:50, v/v, cooled to −20 °C) was added to terminate the reaction.” left out, “Chromatographic conditions were as follows. Column: 4.6 mm × 250 mm Kromasil 100-5-C18 (AkzoNobel, Bohus, Sweden); eluent composition: MeCN/H2O/AcOH 48:52:0.2 (v/v/v); flow rate: 1 mL/min; detection wavelength: 275 nm. Microsomal assays were performed in quadruplicate.” left out
as §5
In vitro intrinsic clearance was calculated as follows:(2) Clint=ln2/t1/2×c where c is the microsomal protein concentration. […]

[8] = Metabolite profiles in liver microsomes from various species (HPLC-UV/LCMS); type: in vitro ADME, human, rat, mouse, dog, mini pig, rhesus monkey; conditions: for number of metabolites produced by microsomal metabolism: in the microsomes of the test species; for Species (liver microsomes in which the peak was found): h human, r rat, m mouse, d dog, mp mini pig, rh rhesus, brackets indicate minor peaks, 275 nm; for species whose metabolite profile is most similar to the human metabolite profile: liver microsomes
Description: Microsomal assays aimed at metabolite profiling were conducted according to the protocol described in Section 4.3.1, but with 10 µL substrate (CBX, MCBX, CPFPX) in a total incubation volume of 1 mL. In Table 6, microsomal protein concentrations and incubation times used in the individual assays are listed. Blank samples containing all matrix components but no substrate were included. Incubations were terminated by adding two volumens of a mixture of MeOH/MeCN (50:50, v/v, cooled to −20 °C). Samples were then vortexed (1 min, 21 °C), centrifuged (10 min, 20,000× g rcf, 21 °C), and evaporated to dryness using a centrifugal vacuum concentrator (Concentrator 5301, Eppendorf, Wesseling-Berzdorf, Germany) set to a temperature of 45 °C. Dried samples were reconstituted with 160 µL HPLC eluent (MeCN/H2O/AcOH 35:65:0.1 (v/v/v)) and centrifuged (3 min, 20,000× g rcf, 21 °C). Aliquots of the clear supernatant (25 µL) were subsequently injected into the HPLC system. Chromatographic parameters were the same as described in Section 4.3.1, except for the addition of a 3 mm NH2 guard column (OPTI-GUARD, Optimize Technologies Inc., Oregon City, OR, USA). For LCMS analyses, the UV-detector outlet was coupled to a mass spectrometer (MSQ PlusTM, Thermo Electron Corporation, San Jose, CA, USA) via an electrospray interface. LCMS parameters were as follows. Nebulizer M gas pressure: 6 bar; desolvation temperature: 500 °C; positive ion mode (ESI+); sprayer voltage: 3000 V; cone voltages: 50 V (unfragmented spectra) or 185 V (fragmented spectra), m/z range 1–800; scan time: 1 s. Mass spectra were analyzed using Xcalibur software (version 3.0).

[9] = from [18F]CPFPX; cited from earlier work
[10] = from [18F]CPFPX; cited from earlier work; remark: listed apart in the source
[11] = rats and mice after [18F]CPFPX injection; cited from earlier work
[12] = radiometabolite of [18F]CPFPX; cited from earlier work

Cn1c(=O)c2c(ncn2C)n(C)c1=O [caffeine]
rate of metabolism in hepatic microsomes, species comparison [1]: considerably higher in hepatic microsomes from humans than in those from rats or monkeys

CCCn1c(=O)c2[nH]c(C3=CCCC3)nc2n(CCCF)c1=O [compound 6, 8-(Cyclopent-1-en-1-yl)-3-(3-fluoropropyl)-1-propylxanthine]
metabolic fate (time course) in human liver microsomes [2]: biotransformation proceeds from 6 via 9 to 4
metabolic fate (time course) in rat liver microsomes [3]: oxidized to produce 9

CCCn1c(=O)c2nc(C3CCCC3)[nH]c2n(CCCF)c1=O [CPFPX, 8-Cyclopentyl-3-(3-fluoropropyl)-1-propylxanthine]
rank order of CLint [4]: CBX > CPFPX > MCBX
rank order of CLint [5]: CPFPX > MCBX > CBX
rank order of CLint [6]: CPFPX > MCBX ≈ CBX
CLint in rhesus microsomes relative to human microsomes (fold higher) [7]: 134 fold
number of metabolites produced by microsomal metabolism [8]: up to 12 metabolites
Species (liver microsomes in which the peak was found) ([8]; substrate CPFPX): h, r, m, d, mp, rh

CCCn1c(=O)c2[nH]c(C3(C)CCC3)nc2n(CCCF)c1=O [MCBX, 3-(3-Fluoropropyl)-8-(1-methylcyclobutyl)-1-propylxanthine]
rank order of CLint [4]: CBX > CPFPX > MCBX
rank order of CLint [5]: CPFPX > MCBX > CBX
rank order of CLint [6]: CPFPX > MCBX ≈ CBX
number of metabolites produced by microsomal metabolism [8]: up to 10 metabolites
species whose metabolite profile is most similar to the human metabolite profile [8]: Rodent
Species (liver microsomes in which the peak was found) ([8]; substrate MCBX): h, r, m, d, mp, rh

CCCn1c(=O)c2[nH]c(C3=CC(O)CC3)nc2n(CCCF)c1=O (centres unmarked) [compound 9, 3-(3-fluoropropyl)-8-(3-hydroxycyclopent-1-en-1-yl)-1-propylxanthine]
metabolic fate (time course) in human liver microsomes [2]: further metabolized to 4
metabolic fate (time course) in rat liver microsomes [3]: remained constant

CCCn1c(=O)c2[nH]c(C3=CC(=O)CC3)nc2n(CCCF)c1=O [compound 4, 3-(3-Fluoropropyl)-8-(3-oxocyclopent-1-en-1-yl)-1-propylxanthine]
species microsomes generating the enone metabolite from CPFPX ([8]; substrate CPFPX): exclusively in human and dog microsomes
Species (liver microsomes in which the peak was found) ([8]; substrate CPFPX): h, d
formation of the enone radiometabolite in human microsomes [9]: extensive formation
formation of the enone radiometabolite in microsomes from rats and mice [10]: almost no significant amounts could be detected
formation of the enone metabolite in vivo (plasma) [11]: generated in vivo
blood–brain barrier penetration [12]: does not penetrate the blood–brain barrier
excretion from the body [12]: slow excretion from the body

CCCn1c(=O)c2[nH]c(C3CCC3)nc2n(CCCF)c1=O [CBX, 8-Cyclobutyl-3-(3-fluoropropyl)-1-propylxanthine]
rank order of CLint [4]: CBX > CPFPX > MCBX
rank order of CLint [5]: CPFPX > MCBX > CBX
rank order of CLint [6]: CPFPX > MCBX ≈ CBX
species whose metabolite profile is most similar to the human metabolite profile [8]: rhesus monkey and mini pig
Species (liver microsomes in which the peak was found) ([8]; substrate CBX): (h), r, m, d, (mp), rh
